Measured values published in PubChem BioAssay (NCI).
“And” between values parts separate entries of the source, which are not always exact repeats. Equal entries are not always repeated.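 48-hour exposure; five concentrations; linearly interpolated endpoints. GI50 = concentration required for 50% inhibition of growth. TGI marks complete inhibition of growth.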

Experiments:
Test in all cases: growth of human tumour cells (NCI), 48 h
MCF7 breast = system: MCF7 breast
MOLT-4 leukemia = system: MOLT-4 leukemia
TK-10 renal = system: TK-10 renal
MDA-MB-231 breast = system: MDA-MB-231 breast
HT29 colon = system: HT29 colon
SF-295 CNS = system: SF-295 CNS
M14 melanoma = system: M14 melanoma
A498 renal = system: A498 renal
SNB-75 CNS = system: SNB-75 CNS
HOP-92 NSCLC = system: HOP-92 NSCLC

SMILES	GI50 (MCF7 breast)	TGI (MCF7 breast)	GI50 (MOLT-4 leukemia)	TGI (MOLT-4 leukemia)	GI50 (TK-10 renal)	TGI (TK-10 renal)	GI50 (MDA-MB-231 breast)	TGI (MDA-MB-231 breast)	GI50 (HT29 colon)	TGI (HT29 colon)	GI50 (SF-295 CNS)	TGI (SF-295 CNS)	GI50 (M14 melanoma)	TGI (M14 melanoma)	GI50 (A498 renal)	TGI (A498 renal)	GI50 (SNB-75 CNS)	TGI (SNB-75 CNS)	GI50 (HOP-92 NSCLC)	TGI (HOP-92 NSCLC)
Cc1sc2nc(-c3ccccn3)c(/C=N/N=C(N)N)n2c1C	6.54 µM	34 µM	10200 nM	> 27.5 µM	5.89 µM	11.2 µM	3.3 µM	6.94 µM	5680 nM	> 17.4 µM	8770 nM	16.9 µM	7280 nM	12.1 µM	11800 nM	24.4 µM	21200 nM	47.4 µM	7550 nM	15.8 µM
Nc1c(C(=O)Nc2cccc3ccccc23)sc2nc3c(cc12)CCCC3	0.0577 µM	> 100 µM	637 nM	> 100 µM	14.6 µM	> 100 µM	5.23 µM	> 100 µM	1180 nM	> 100 µM	621 nM	> 100 µM	464 nM	> 100 µM	366 nM	7.78 µM	1040 nM	> 100 µM	76.9 nM	9.29 µM
Cn1c2ccccc2c2cc(-c3ccccc3)c3c(c21)C(=O)C=CC3=O		24.7 µM		21.8 µM		32 µM		47.4 µM		42.7 µM		62.4 µM		47.9 µM		48.7 µM		67.1 µM		29.9 µM
OC(COc1ccc(Cl)cc1Cl)CN1CCCC1 (stereo not given)		> 100 µM		> 100 µM		> 100 µM		> 100 µM		69.9 µM		> 100 µM		41.1 µM		> 100 µM		> 100 µM		> 100 µM
CCN(CC)c1ccc(/C=C/C(=O)c2cccc(NS(C)(=O)=O)c2)cc1	3.72 µM	> 100 µM	4090 nM	> 100 µM	7.53 µM	> 100 µM	9.7 µM	> 100 µM	3150 nM	> 100 µM	5910 nM	> 100 µM	4100 nM	> 100 µM	5390 nM	> 100 µM	10600 nM	> 100 µM	14000 nM	71.1 µM
O=C1OCC2=C1C(c1cccc(F)c1)c1cc3c(cc1N2CCO)OCCO3 (stereo not given)	0.13 µM	> 50 µM	301 nM	> 50 µM	0.363 µM	> 50 µM	0.32 µM	> 20.3 µM	178 nM	> 50 µM	134 nM	> 50 µM	105 nM	> 50 µM	111 nM	0.438 µM	113 nM	0.38 µM	2070 nM	> 50 µM
O=C1CC(c2ccccc2)Cc2nc3ccc(Cl)cc3cc21 (stereo not given)	2.42 µM	> 100 µM	64.4 nM	> 100 µM	22.3 µM	> 100 µM	0.538 µM	> 100 µM	246 nM	> 100 µM	339 nM	17.3 µM	35.6 nM	23.8 µM	50.3 nM	0.401 µM	126 nM	70.3 µM	1510 nM	42.5 µM
O=C1C[C@@H](c2ccccc2)NCCCCN(O)CCCN1		> 100 µM		> 100 µM		> 100 µM		> 100 µM		> 100 µM		> 100 µM		> 100 µM		> 100 µM		> 100 µM		> 100 µM
CC1=C[C@H]2c3c(c(O)c(O)c4oc5cc(O)cc(O)c5c(=O)c34)[C@H](c3cc(O)c(O)c4oc5cc(O)cc(O)c5c(=O)c34)[C@H]2C(C)(C)C1	0.725 µM	3.88 µM	764 nM and 1920 nM	3.31 µM and 12.9 µM	2.12 µM and 3.06 µM	10.5 µM and 14.8 µM	1.46 µM and 1.83 µM	4.01 µM and 5.62 µM	1490 nM and 2960 nM	5.74 µM and 12 µM	1980 nM and 1630 nM	6.32 µM and 4.96 µM	1590 nM and 1620 nM	5.19 µM and 4.93 µM	1890 nM	4.63 µM	1510 nM and 2080 nM	10.5 µM and 12.7 µM	1940 nM and 1100 nM	4.73 µM and 3.33 µM
O=C1C=C(N2CC2)c2ccccc2C1=O	1.48 µM	3.76 µM	1990 nM	5.77 µM	2.15 µM	3.64 µM	2.05 µM	5.11 µM	2580 nM	5.57 µM	1630 nM	3.12 µM	1630 nM	3.04 µM	1360 nM	2.84 µM	1570 nM	3.12 µM	1630 nM	3.41 µM
CC12C=CC(C)(O1)C1C2c2ccccc2S1(=O)=O (stereo not given)	50.4 µM	> 100 µM	62700 nM	> 100 µM	> 100 µM	> 100 µM	69.9 µM	> 100 µM	> 100000 nM	> 100 µM	> 100000 nM	> 100 µM	25000 nM	> 100 µM	> 100000 nM	> 100 µM	23200 nM	> 100 µM	58600 nM	> 100 µM
COc1ccc(N2CCN(CC(=O)N3CCN(c4nnc(-c5ccccc5)c(-c5ccccc5)n4)CC3)CC2)cc1	4.44 µM	34.2 µM	4790 nM	> 71 µM	9.39 µM	> 100 µM	65.3 µM	> 100 µM	3190 nM	11.3 µM	4150 nM	> 100 µM	17000 nM	> 100 µM	3350 nM	85.6 µM	7630 nM	> 100 µM	7130 nM	> 94.4 µM
COC(=O)Nc1nc2c(OC)c(OC)c(OC)cc2[nH]1	9.38 µM	> 100 µM	67200 nM	> 100 µM	66.6 µM	> 100 µM	18.7 µM	> 100 µM	4630 nM	> 97.1 µM	27900 nM	> 100 µM	8900 nM	> 100 µM	25500 nM	> 100 µM	15400 nM	> 92.6 µM	20900 nM	> 91.4 µM
CSc1nc(Cl)c(Br)c(Nc2c[nH]c(=O)[nH]c2=O)n1		> 100 µM		43.6 µM		40 µM		30.1 µM		29.4 µM		42.6 µM		> 100 µM		35.7 µM		42.7 µM		31.8 µM
